# How the values were obtained:
# Assay type in all cases: cell-based
# [1] = tested on: Pseudomonas aeruginosa UC 95 (PA); experiment: Dipped disk (disk-diffusion) assay, disks loaded with 0.10 ml; conditions: Conc 0.1 mg/ml, 0.10 ml per disk
# Description: (§1) The effectiveness of the subject compounds on some bacteria were obtained by performing a dipped disk assay. The antibacterial activity of the compounds is determined by the disk-diffusion method. […] They were then applied to the surface of microorganism-seeded agar assay trays, which contained the bacterial strain Pseudomonas aeruginosa UC 95 )PA), Escherichia coli UC 51 (EC) or Staphylococcus aureus UC 80 (SA). The assay trays were incubated overnight under aerobic condition to allow for the growth of the organisms. Zones of growth inhibition due to the action of the antibiotic were then measured to the nearest millimeter.
# [2] = tested on: Staphylococcus aureus UC 80 (SA); experiment: as above; conditions: 0.10 ml per disk
# Description: as §1
# [3] = tested on: Klebsiella pneumoniae UC 57 (KP); experiment: Dip disk (disk-diffusion) assay, disks loaded with 0.05 ml; conditions: 0.1 mcg/ml, 0.05 ml per disk
# Description: as §1, with “on” for “on some”, “a dip” for “a dipped”, “compounds was” for “compounds is”, “95 (PA),” for “95 )PA),”, “51 (EC), Klebsiella pneumoniae UC 57 (KP),” for “51 (EC)”, “millimeter. […]” for “millimeter.”
# [4] = tested on: Gram-positive and Gram-negative bacteria; experiment: Dipped disk assay, overall antibacterial activity (Formula IB)
# Description: The effectiveness of the subject compounds on some bacteria were obtained by performing a dipped disk assay. The antibacterial activity of the compounds is determined by the disk-diffusion method. Paper disks (12.7 mm) were loaded with 0.10 ml of drug solution prepared at a concentration of 1 and 0.1 mcg/ml; the disks were allowed to air dry. They were then applied to the surface of microorganism-seeded agar assay trays, which contained the bacterial strain Pseudomonas aeruginosa UC 95 )PA), Escherichia coli UC 51 (EC) or Staphylococcus aureus UC 80 (SA). The assay trays were incubated overnight under aerobic condition to allow for the growth of the organisms. Zones of growth inhibition due to the action of the antibiotic were then measured to the nearest millimeter.
# [5] = tested on: Escherichia coli UC 51 (EC); experiment: Dipped disk (disk-diffusion) assay, disks loaded with 0.10 ml; conditions: 0.10 ml per disk
# Description: as §1
# [6] = tested on: Pseudomonas aeruginosa UC 95 (PA); experiment: Dip disk (disk-diffusion) assay, disks loaded with 0.05 ml; conditions: 0.1 mcg/ml, 0.05 ml per disk
# Description: (§2) The effectiveness of the subject compounds on bacteria were obtained by performing a dip disk assay. The antibacterial activity of the compounds was determined by the disk-diffusion method. Paper disks (12.7 mm) were loaded with 0.05 ml of drug solution prepared at a concentration of 0.1 mcg/ml; the disks were allowed to air dry. They were then applied to the surface of microorganism-seeded agar assay trays, which contained the bacterial strain Pseudomonas aeruginosa UC 95 (PA), Escherichia coli UC 51 (EC), Klebsiella pneumoniae UC 57 (KP), or Staphylococcus aureus UC 80 (SA). The assay trays were incubated overnight under aerobic condition to allow for the growth of the organisms. Zones of growth inhibition due to the action of the antibiotic were then measured to the nearest millimeter.
# (§3) The effectiveness of additional compounds 5-9, (5-7 are Formula IAa compounds and 8 and 9 are Formula IAb compounds) on bacteria were obtained by performing a dip disk assay as described above. The antibacterial activity of the compounds was determined by the disk-diffusion method where the disks were loaded with 0.05 ml of drug solution prepared at a concentration of 1.0 mcg/ml; the disks were allowed to air dry.
# [7] = tested on: Staphylococcus aureus UC 80 (SA); experiment: as above; conditions: 0.1 mcg/ml, 0.05 ml per disk
# Description: as §2, §3
# [8] = tested on: Escherichia coli UC 51 (EC); experiment: as above; conditions: 0.1 mcg/ml, 0.05 ml per disk
# Description: as §2, §3
# [9] = tested on: gram negative and positive; experiment: Compound 10 compared to ciprofloxacin, overall activity; conditions: compared with ciprofloxacin
Molecule,"Growth Inhibition zone, PA [1]","Growth Inhibition Zone, SA ([2]; Conc 0.1 mg/ml)","Growth Inhibition Zone, SA ([2]; Conc 1 mg/ml)","Growth Inhibition zone, KP [3]",gram negative and positive activity (in words) [4],"Growth Inhibition Zone, EC ([5]; Conc 0.1 mg/ml)","Growth Inhibition Zone, EC ([5]; Conc 1 mg/ml)","Growth Inhibition zone, PA [6]","Growth Inhibition Zone, SA [7]","Growth Inhibition Zone, EC [8]",gram negative and positive activity (in words) [9]
"2-[4-(1-Cyclopropyl-3-carboxy-6,8-difluoro-1,4-dihydro-4-oxo-7-quinolinyl)-1-piperazinyl]2-butenedioic acid, dimethyl ester [Compound 1]",35 mm,25 mm,28 mm,31 millimeter,potent gram negative and positive activity as compared to the commercially available antibacterial Ciprofloxacin,30 mm,35 mm,36 millimeter,27 millimeter,31 millimeter,
"2-[4-(1-Ethyl-3-carboxy-6-fluoro-1,4-dihydro-4-oxo-7-quinolinyl)-1-piperizinyl]2-butanedioic acid, dimethyl ester [Compound 2]",35 mm,25 mm,28 mm,25 millimeter,potent gram negative and positive activity as compared to the commercially available antibacterial Ciprofloxacin,30 mm,30 mm,25 millimeter,21 millimeter,23 millimeter,
"COC(=O)/C=C(/NC1CCN(c2c(F)cc3c(=O)c(C(=O)O)cn(C4CC4)c3c2F)C1)C(=O)OC (stereo not drawn) [Compound 10, 2-[4-(3-carboxy-1-cyclopropyl-6,8-difluoro-1,4-dihydro-4-oxo-7-quinolinyl)-1-(3-aminopyrrolidinyl)]-2-butenedioic acid-(E)-1,4-dimethyl ester]",,,,,,,,,,,gram negative and positive activity greatly increased over that of ciprofloxacin

# From patent publication US5262417A, “Antibacterial quinolone compounds” (The Upjohn Company, priority 1991, dated 1993)
